From patent US20230159453A1 (COCRYSTAL PHARMA, INC., priority 2020, published 2023)
pIC50: −log10 of the molar value. Several values for one entry are separate records, joined by “and”; a condition that tells them apart may be missing. Equal values may be shown once.

Molecular target: SARS2 protease (Severe acute respiratory syndrome coronavirus 2, UniProt P0DTD1)
Assay: SARS-CoV-2 protease inhibition assay (SARS2 FRET protease assay)
Format: biochemical
Settings: SARS-CoV-2 protease 25 nM, FRET, peptide substrate 1.3 μM, 30 minutes at 30° C., compounds 20 μM to 1.0 nM; read-out: IC50

Row | Structure (SMILES) | pIC50
1 | CC(C)(COC(=O)N[C@H](C(=O)N[C@@H](C[C@@H]1CCNC1=O)C(O)S(=O)(=O)O)C(C)(C)C)c1cccc(Cl)c1 (stereo partly drawn) [Compound C111, Sodium (2S)-2-((S)-2-(((2-(3-chlorophenyl)-2-methylpropoxy)carbonyl)amino)-3,3-dimethylbutanamido)-1-hydroxy-3-((S)-2-oxopyrrolidin-3-yl)propane-1-sulfonate] | 6.31
2 | CC(C)C[C@H](NC(=O)OC1(Cc2cccnc2)CC1)C(=O)N[C@@H](C[C@@H]1CCNC1=O)C(O)S(=O)(=O)O (stereo partly drawn) [Compound C62, (2S)-1-Hydroxy-2-((S)-4-methyl-2-(((1-(pyridin-3-ylmethyl)cyclopropoxy)carbonyl)amino)pentanamido)-3-((S)-2-oxopyrrolidin-3-yl)propane-1-sulfonate] | 5.34
3 | CC(C)(C)OC(=O)N1CCN(C(=O)CC[C@@H](C=O)NC(=O)[C@H](CC2CCCCC2)NC(=O)OCc2cccc(Cl)c2)CC1c1ccccc1 (stereo partly drawn) [Compound C20, tert-butyl 4-((S)-4-((S)-2-((((3-chlorobenzyl)oxy)carbonyl)amino)-3-cyclohexylpropanamido)-5-oxopentanoyl)-2-phenylpiperazine-1-carboxylate] | < 3.70
4 | CC(C)C[C@H](NC(=O)OC(Cc1cccc(Cl)c1)c1ccccc1)C(=O)N[C@H](C=O)C[C@@H]1CCNC1=O (stereo partly drawn) [Compound C104, 2-(3-Chlorophenyl)-1-phenylethyl ((S)-4-methyl-1-oxo-1-(((S)-1-oxo-3-((S)-2-oxopyrrolidin-3-yl)propan-2-yl)amino)pentan-2-yl) carbamate] | 8.22
5 | COc1cccc2[nH]c(C(=O)N[C@@H](CC3CCCCC3)C(=O)NC(C=O)CC3CC4(CCN(C(C)=O)CC4)NC3=O)cc12 (stereo partly drawn) [Compound C133, N-((2S)-1-((1-(8-acetyl-2-oxo-1,8-diazaspiro[4.5]decan-3-yl)-3-oxopropan-2-yl)amino)-3-cyclohexyl-1-oxopropan-2-yl)-4-methoxy-1H-indole-2-carboxamide] | 10.07
6 | NC(=O)C(=O)C(CC1CC2(CCCCC2)NC1=O)NC(=O)[C@H](CC1CCCCC1)NC(=O)c1cc2ccccc2[nH]1 (stereo partly drawn) [Compound C119, N-((2S)-1-((4-amino-3,4-dioxo-1-(2-oxo-1-azaspiro[4.5]decan-3-yl)butan-2-yl)amino)-3-cyclohexyl-1-oxopropan-2-yl)-1H-indole-2-carboxamide] | 6.10
7 | CC(C)C[C@H](NC(=O)OC1CCCC1Cc1ccccc1)C(=O)NC(C[C@@H]1CCNC1=O)C(=O)C(=O)NC1CC1 (stereo in doubt) [Compound C89, 2-Benzylcyclopentyl ((S)-1-(((R)-4-(cyclopropylamino)-3,4-dioxo-1-((S)-2-oxopyrrolidin-3-yl)butan-2-yl)amino)-4-methyl-1-oxopentan-2-yl)carbamate] | 6.52
8 | CC1(C)CC(C[C@@H](C=O)NC(=O)[C@H](CC2CCCCC2)NC(=O)OC(Cc2cccc(Cl)c2)c2cccc(Cl)c2)C(=O)N1 (stereo partly drawn) [Compound C162, 1,2-Bis(3-Chlorophenyl)ethyl ((2S)-3-cyclohexyl-1-((1-(5,5-dimethyl-2-oxopyrrolidin-3-yl)-3-oxopropan-2-yl)amino)-1-oxopropan-2-yl)carbamate] | 7.04
9 | CC(C)(c1cccc(Cl)c1)C(OC(=O)N[C@@H](CC1CCCCC1)C(=O)N[C@H](C=O)C[C@@H]1CCNC1=O)c1ccccc1Cl (stereo partly drawn) [Compound C160, 1-(2-chlorophenyl)-2-(3-chlorophenyl)-2-methylpropyl ((S)-3-cyclohexyl-1-oxo-1-(((S)-1-oxo-3-((S)-2-oxopyrrolidin-3-yl)propan-2-yl)amino)propan-2-yl) carbamate] | 7.61
10 | CN(C)C(=O)CC[C@@H](C=O)NC(=O)C(CC(C)(C)C)NC(=O)OCc1cccc(Cl)c1 (stereo partly drawn) [Compound C22, 3-Chlorobenzyl (1-(((S)-5-(dimethylamino)-1,5-dioxopentan-2-yl)amino)-4,4-dimethyl-1-oxopentan-2-yl)carbamate] | 5.42
11 | CCOP(=O)(OCC)C(O)C(CC1CC2(CCN(C(C)=O)CC2)NC1=O)NC(=O)C(CC(C)C)NC(=O)OCc1cccc(Cl)c1 (stereo in doubt) [Compound C69, 3-Chlorobenzyl ((2R)-1-((3-(8-acetyl-2-oxo-1,8-diazaspiro[4.5]decan-3-yl)-1-(diethoxyphosphoryl)-1-hydroxypropan-2-yl)amino)-4-methyl-1-oxopentan-2-yl)carbamate] | 4.57
12 | CC1(C)CC(CC(NC(=O)[C@H](CC2CCCCC2)NC(=O)OC(c2cccc(F)c2)C(C)(C)c2cccc(Cl)c2)C(=O)C(=O)NC2CC2)C(=O)N1 (stereo partly drawn) [Compound C205, 2-(3-Chlorophenyl)-1-(3-fluorophenyl)-2-methylpropyl ((2S)-3-cyclohexyl-1-((4-(cyclopropylamino)-1-(5,5-dimethyl-2-oxopyrrolidin-3-yl)-3,4-dioxobutan-2-yl)amino)-1-oxopropan-2-yl)carbamate] | 5.59
13 | NC(=O)C(=O)[C@H](C[C@@H]1CCNC1=O)NC(=O)[C@H](CC1CCCCC1)NC(=O)OC(Cc1cccc(Cl)c1)c1ccccc1 (stereo partly drawn) [Compound C116, 2-(3-Chlorophenyl)-1-phenylethyl ((S)-1-(((S)-4-amino-3,4-dioxo-1-((S)-2-oxopyrrolidin-3-yl)butan-2-yl)amino)-3-cyclohexyl-1-oxopropan-2-yl)carbamate] | 5.31
14 | CC(C)(c1cccc(Cl)c1)C(OC(=O)N[C@@H](CC1CCCCC1)C(=O)N[C@H](C=O)C[C@@H]1CCNC1=O)c1cccc(Cl)c1 (stereo partly drawn) [Compound C106, 1,2-Bis(3-chlorophenyl)-2-methylpropyl ((S)-3-cyclohexyl-1-oxo-1-(((S)-1-oxo-3-((S)-2-oxopyrrolidin-3-yl)propan-2-yl)amino)propan-2-yl)carbamate] | 10.00
15 | CC(C)C[C@H](NC(=O)OC1(Cc2cccc(Cl)c2)CC1)C(=O)N[C@H](C=O)C[C@@H]1CCNC1=O [Compound C45, 1-(3-Chlorobenzyl) cyclopropyl ((S)-4-methyl-1-oxo-1-(((S)-1-oxo-3-((S)-2-oxopyrrolidin-3-yl)propan-2-yl)amino)pentan-2-yl)carbamate] | 6.52
16 | CC(=O)N1CC2(CC(CC(C=O)NC(=O)[C@H](CC(C)C)NC(=O)OCc3cccc(Cl)c3)C(=O)N2)C1 (stereo partly drawn) [Compound C102, 3-chlorobenzyl ((2S)-1-((1-(2-acetyl-6-oxo-2,5-diazaspiro[3.4]octan-7-yl)-3-oxopropan-2-yl)amino)-4-methyl-1-oxopentan-2-yl)carbamate] | 6.93
17 | CC(C)C[C@H](NC(=O)OCC(C)(C)c1cccc(Cl)c1)C(=O)N[C@@H](C[C@@H]1CCNC1=O)C(=O)C(N)=O [Compound C90, 2-(3-chlorophenyl)-2-methylpropyl ((S)-1-(((S)-4-amino-3,4-dioxo-1-((S)-2-oxopyrrolidin-3-yl)butan-2-yl)amino)-4-methyl-1-oxopentan-2-yl)carbamate] | 7.00
18 | O=C(N[C@@H](CC1CCCCC1)C(=O)N[C@@H](C[C@@H]1CCNC1=O)C(=O)C(=O)NC1CC1)OCc1cccc(Cl)c1 [Compound C154, 3-Chlorobenzyl ((S)-3-cyclohexyl-1-(((S)-4-(cyclopropylamino)-3,4-dioxo-1-((S)-2-oxopyrrolidin-3-yl)butan-2-yl)amino)-1-oxopropan-2-yl)carbamate] | 5.83
19 | CC(C)C(OC(=O)N[C@@H](CC1CCCCC1)C(=O)N[C@@H](C[C@@H]1CCNC1=O)C(=O)C(N)=O)c1ccccc1 (stereo partly drawn) [Compound C216, 2-Methyl-1-phenylpropyl ((S)-1-(((S)-4-amino-3,4-dioxo-1-((S)-2-oxopyrrolidin-3-yl)butan-2-yl)amino)-3-cyclohexyl-1-oxopropan-2-yl)carbamate] | 5.51
20 | O=CC(CC1CC(Cc2ccccc2)NC1=O)NC(=O)[C@H](CC1CCCCC1)NC(=O)OCc1cccc(Cl)c1 (stereo partly drawn) [Compound C52, 3-Chlorobenzyl ((2S)-1-((1-(5-benzyl-2-oxopyrrolidin-3-yl)-3-oxopropan-2-yl)amino)-3-cyclohexyl-1-oxopropan-2-yl)carbamate] | 6.30
21 | CC(C)C[C@H](NC(=O)N(Cc1ccccc1)C1CCN(C(=O)OC(C)(C)C)CC1)C(=O)N[C@@H](C[C@@H]1CCNC1=O)C(O)S(=O)(=O)O (stereo partly drawn) [Compound C40, (2S)-2-((S)-2-(3-benzyl-3-(1-(tert-butoxycarbonyl)piperidin-4-yl)ureido)-4-methylpentanamido)-1-hydroxy-3-((S)-2-oxopyrrolidin-3-yl)propane-1-sulfonate] | 6.76 and 6.65
22 | CCCCC[C@H](NC(=O)OC(c1ccccc1)C(C)(C)c1cccc(Cl)c1)C(=O)N[C@H](C=O)C[C@@H]1CCNC1=O (stereo partly shown) [Compound C267] | 7.00
23 | O=C[C@H](CC1CC2(CCCC2)NC1=O)NC(=O)[C@H](CC1CCCCC1)NC(=O)OC1CCCC1Cc1cccc(Cl)c1 (stereo partly drawn) [Compound C165, 2-(3-chlorobenzyl)cyclopentyl ((2S)-3-cyclohexyl-1-oxo-1-((1-oxo-3-(2-oxo-1-azaspiro[4.4]nonan-3-yl)propan-2-yl)amino)propan-2-yl)carbamate] | 6.98
24 | CC(C)C[C@H](NC(=O)OC(Cc1ccccc1)c1ccccc1)C(=O)N[C@@H](C[C@@H]1CCNC1=O)C(=O)C(=O)N1CCNCC1 (stereo partly shown) [Compound C283] | < 4.70
25 | COc1cccc(CC2(OC(=O)N[C@@H](CC(C)C)C(=O)N[C@H](C=O)C[C@@H]3CCNC3=O)CC2)c1 [Compound C42, 1-(3-Methoxybenzyl)cyclopropyl ((S)-4-methyl-1-oxo-1-(((S)-1-oxo-3-((S)-2-oxopyrrolidin-3-yl)propan-2-yl)amino)pentan-2-yl)carbamate] | 6.45
26 | CCOCCNC(=O)C(=O)[C@H](C[C@@H]1CCNC1=O)NC(=O)[C@H](CC1CCCCC1)NC(=O)OC(c1ccccc1)C(C)(C)c1cccc(Cl)c1 (stereo partly shown) [Compound C271] | 5.70
27 | CC(C)(c1cccc(Cl)c1)C(OC(=O)N[C@@H](Cc1ccccc1)C(=O)N[C@H](C=O)C[C@@H]1CCNC1=O)c1ccccc1 (stereo partly shown) [Compound C257] | < 4.70
28 | CC(C)C(=O)N1CCC2(CC1)CC(CC(NC(=O)[C@H](CC1CCCCC1)NC(=O)c1cc3ccccc3[nH]1)C(=O)C(N)=O)C(=O)N2 (stereo partly drawn) [Compound C138, N-((2S)-1-((4-amino-1-(8-isobutyryl-2-oxo-1,8-diazaspiro[4.5]decan-3-yl)-3,4-dioxobutan-2-yl)amino)-3-cyclohexyl-1-oxopropan-2-yl)-1H-indole-2-carboxamide] | 6.61
